Experimental data reported in patent publication US9096550B2, “Bryostatin analogues and methods of making and using thereof” (UNIVERSITY OF UTAH RESEARCH FOUNDATION, priority 2008, dated 2015).
Read-outs that look alike come from different tables or passages of the source.

Tests used:
Format in all cases: cell-based, human
cFos = assay: Induction of cFos in LNCaP cells (western blot); settings: LNCaP cells treated 2, 5 or 8 hrs
Description: FIGS. 14A-C show the induction of cFos and phosphorylation of PKC at Y311 in LNCaP cells. […] The proteins from the lysates were separated by 10% SDS-PAGE, electroblotted to nitrocellulose membranes and probed with anti-cFos primary and anti-rabbit secondary antibodies, followed by ECL visualization. Data are representative of four independent experiments. […] The cFos signal was normalized to the β-actin signal to correct for loading and the response induced by 100 nM PMA at 2 hrs was taken as 100%. Data represent the means+SEM of four independent experiments. […] Data represent the means+SEM of three independent experiments.
LNCaP cells treated for 48 hours with the different drugs or with DMSO as control were washed and re-suspended in phosphate buffered saline. Yo-Pro-1 (Invitrogen, Carlsbad, Calif.) was added to a final concentration of 1 μM and the cells were incubated for 20 min at 4° C. in the dark. 7-Aminoactinomycin D (7-AAD) (Invitrogen, Carlsbad, Calif.) was then added at a 5 μg/mL final concentration 10 minutes before analysis by flow cytometry using the FACSCalibur system (Becton Dickinson, Mountain View, Calif.). Data were analyzed with FlowJo 7 (Tree Star Inc., Ashland, Oreg.). The Yo-Pro-1 positive cells were considered apoptotic and were expressed as % of total cells. […]

LNCaP cells [1] = assay: Proliferation of LNCaP cells (Incucyte confluency); settings: for effect on LNCaP cell growth: compound alone, confluency at 80 hrs
Description: (§1) FIGS. 12A-D show the effect of different compounds on the proliferation and apoptosis of LNCaP cells. […] Time-elapsed images were taken with an Incucyte imaging system every hour for 4 days. The proliferation of LNCaP cells is presented as increase in confluency (read by the instrument) at 80 hrs. Data represent the means+SEM of three independent experiments. […] Apoptosis was measured 2 days after treatment by flow cytometry using 7-AAD and Yo-Pro-1 as described in Materials and Methods. Data represent the means+SEM of three independent experiments.
(§2) FIGS. 13A and 13B show the proliferation and morphology of LNCaP cells detected by Incucyte. LNCaP cells were treated with DMSO as control, 300 nM PMA, 1000 nM bryostatin 1 or the bryologue MERLE 21, or with 300 nM PMA in combination with 1000 nM bryostatin 1 or the bryologue MERLE 21. Time-elapsed images were taken by the Incucyte imaging system every hour. […] The arrow indicates the time of treatment. Data are representative of three independent experiments.
(§3) The extent of confluency of LNCaP cells (from ATCC, Manassas, Va.) and the morphological changes after treatment were followed in real time using Incucyte (Essen Instruments, Ann Arbor, Mich.). Images of LNCaP cells plated into 24 well plates were taken every 1 hour by the instrument before and after treatment for a total of 4 days. The confluency of the cells was calculated by the instrument's program. The proliferation of LNCaP cells was expressed as the difference in cell confluency before and after treatment.

LNCaP cells [2] = assay: Early morphology change (cell flattening) of LNCaP cells by Incucyte imaging
Description: as §2
as §3, with “Images of LNCaP cells plated into 24 well plates were taken every 1 hour by the instrument before and after treatment for a total of 4 days.” left out
The above measurements were determined at fixed times after compound addition, 80 hr for proliferation and 48 hr for apoptosis. Cell growth was monitored continuously using an Incucyte live cell imaging system. […] At early times (0-6 hrs after treatment), the imaging also detected a transient response, reflecting a change in cell morphology induced by the compounds, superimposed on the slower change in the signal reflecting proliferation. […]

LNCaP cells [3] = assay: Apoptosis of LNCaP cells (Yo-Pro-1/7-AAD flow cytometry); settings: 48 hr; for induction of apoptosis in LNCaP cells: compound alone
Description: as §1
LNCaP cells treated for 48 hours with the different drugs or with DMSO as control were washed and re-suspended in phosphate buffered saline. Yo-Pro-1 (Invitrogen, Carlsbad, Calif.) was added to a final concentration of 1 μM and the cells were incubated for 20 min at 4° C. in the dark. 7-Aminoactinomycin D (7-AAD) (Invitrogen, Carlsbad, Calif.) was then added at a 5 μg/mL final concentration 10 minutes before analysis by flow cytometry using the FACSCalibur system (Becton Dickinson, Mountain View, Calif.). Data were analyzed with FlowJo 7 (Tree Star Inc., Ashland, Oreg.). The Yo-Pro-1 positive cells were considered apoptotic and were expressed as % of total cells. Western blot analysis of treated LNCaP cell lysates was performed as described previously using rabbit anti-cFos, rabbit anti-PKC delta, rabbit anti-phospho-tyrosine 311 of PKC delta or rabbit anti-β-actin antibodies.

Row | Compound | time course of cFos induction (cFos) | effect on LNCaP cell growth (LNCaP cells [1]) | persistence of cell flattening (early morphological response) (LNCaP cells [2]) | induction of apoptosis in LNCaP cells (LNCaP cells [3]) | block of the PMA inhibition of LNCaP cell growth (LNCaP cells [1]; 300 nM PMA combined with 1000 nM compound, 80 hrs) | persistence of cell flattening (early morphological response) (LNCaP cells [2]; LNCaP cells, 0-9 hrs after treatment) | block of induction of apoptosis by PMA in LNCaP cells (LNCaP cells [3]; 300 nM PMA in combination with 1000 nM compound)
1 | CCCCCCCCCCCCCC(=O)O[C@@H]1[C@@H](C)[C@@]2(O)[C@@H](C=C(CO)C[C@]3(O)C(=O)C(C)=C[C@@H]23)[C@@H]2C(C)(C)[C@]12OC(C)=O [PMA] | persisted for 5 hrs, with weak induction still evident at 8 hrs | marked inhibition of cell proliferation | still evident at 6 hrs but reversing by 9 hrs | induced apoptosis | – | – | –
2 | CCC/C=C/C=C/C(=O)O[C@H]1/C(=C/C(=O)OC)C[C@H]2C[C@H]([C@@H](C)O)OC(=O)C[C@H](O)C[C@@H]3C[C@H](OC(C)=O)C(C)(C)[C@](O)(C[C@@H]4C/C(=C/C(=O)OC)C[C@H](/C=C/C(C)(C)[C@]1(O)O2)O4)O3 [bryostatin 1] | largely lost by 5 hrs | little effect | – | little effect | blocked the inhibition of LNCaP cell growth by PMA | had reversed by 6 hrs after treatment | largely blocked the induction of apoptosis by PMA
